Several values for one entry are separate records, joined by “and”; a condition that tells them apart may be missing. Equal entries are not always repeated. Activity calls are given as the source filed them. The rule behind the calls is not given here.
Key:
[1] = tested on: Canis familiaris; test: Tested for mean blood pressure with ventricular tachycardia in dogs at a dose of 6 mg/kg Expt-1; type: functional, Canis lupus familiaris
[2] = organism: Canis familiaris; test: Relative effect on mean blood pressure in dogs; NC=no change; type: functional, organism-based; conditions: Canis lupus familiaris
[3] = tested on: Canis familiaris; test: Tested for mean blood pressure with ventricular tachycardia in dogs at a dose of 6 mg/kg Expt-2; type: functional, Canis lupus familiaris
[4] = tested on: Canis familiaris; test: Tested for Norman sinus rhythm in dogs at a dose of 6 mg/kg Expt-2; type: functional, Canis lupus familiaris
[5] = tested on: Canis familiaris; test: Tested for Sustained ventricular tachycardia in dogs at a dose of 6 mg/kg Expt-1; type: functional, Canis lupus familiaris, Cardiac ventricle
[6] = tested on: Canis familiaris; test: Tested for mean blood pressure without ventricular tachycardia in dogs at a dose of 3 mg/kg Expt-2; type: functional, Canis lupus familiaris
[7] = tested on: Canis familiaris; test: Tested for Sustained ventricular tachycardia in dogs at a dose of 3 mg/kg Expt-2; type: functional, Canis lupus familiaris, Cardiac ventricle
[8] = tested on: Canis familiaris; test: Tested for mean blood pressure without ventricular tachycardia in dogs at a dose of 6 mg/kg Expt-2; type: functional, Canis lupus familiaris
[9] = organism: Canis familiaris; test: Relative effect on slowing of ventricular tachycardia in dogs; slowing of VT; type: functional, organism-based; conditions: Canis lupus familiaris; Cardiac ventricle
[10] = tested on: Canis familiaris; test: Tested for Norman sinus rhythm in dogs at a dose of 3 mg/kg Expt-1; type: functional, Canis lupus familiaris
[11] = tested on: Canis familiaris; test: Tested for mean blood pressure with ventricular tachycardia in dogs at a dose of 3 mg/kg Expt-2; type: functional, Canis lupus familiaris
[12] = tested on: Canis familiaris; test: Tested for mean blood pressure without ventricular tachycardia in dogs at a dose of 3 mg/kg Expt-1; type: functional, Canis lupus familiaris
[13] = organism: Canis familiaris; test: Relative effect on abolition of ventricular tachycardia in dogs; no abolition of VT; type: functional, organism-based; conditions: Canis lupus familiaris; Cardiac ventricle
[14] = tested on: Canis familiaris; test: Tested for Norman sinus rhythm in dogs at a dose of 3 mg/kg Expt-2; type: functional, Canis lupus familiaris
[15] = organism: Canis familiaris; test: Relative effect on exacerbation of ventricular tachycardia in dogs; exacerbation of VT; type: functional, organism-based; conditions: Canis lupus familiaris; Cardiac ventricle
[16] = tested on: Canis familiaris; test: Tested for Sustained ventricular tachycardia in dogs at a dose of 6 mg/kg Expt-2; type: functional, Canis lupus familiaris, Cardiac ventricle
[17] = tested on: Canis familiaris; test: Tested for Sustained ventricular tachycardia in dogs at a dose of 3 mg/kg Expt-1; type: functional, Canis lupus familiaris, Cardiac ventricle
[18] = organism: Canis familiaris; test: Relative effect on normal sinus rate in dogs; NC=no change; type: functional, organism-based; conditions: Canis lupus familiaris
[19] = tested on: Canis familiaris; test: Tested for mean blood pressure without ventricular tachycardia in dogs at a dose of 6 mg/kg Expt-1; type: functional, Canis lupus familiaris
[20] = tested on: Canis familiaris; test: Tested for Norman sinus rhythm in dogs at a dose of 6 mg/kg Expt-1; type: functional, Canis lupus familiaris
[21] = organism: Canis familiaris; test: Relative effect on normal sinus rate in dogs;NC =no change in normal sinus rate.; type: functional, organism-based; conditions: Canis lupus familiaris
[22] = tested on: Canis familiaris; test: Tested for mean blood pressure without ventricular tachycardia in dogs at a dose of 3 mg/kg; type: functional, Canis lupus familiaris
[23] = tested on: Canis familiaris; test: Tested for Norman sinus rhythm in dogs at a dose of 6 mg/kg; type: functional, Canis lupus familiaris; design: unit not given beside the values
[24] = organism: Canis familiaris; test: Relative effect on abolition of ventricular tachycardia in dogs;abolition of VT; type: functional, organism-based; conditions: Canis lupus familiaris; Cardiac ventricle
[25] = tested on: Canis familiaris; test: Relative effect on mean blood pressure in dogs; Slight 8% increase im mean BP; type: functional, organism-based; conditions: Canis lupus familiaris
[26] = tested on: Canis familiaris; test: Tested for mean blood pressure without ventricular tachycardia in dogs at a dose of 6 mg/kg; type: functional, Canis lupus familiaris
[27] = organism: Canis familiaris; test: Relative effect on exacerbation of ventricular tachycardia in dogs; No exacerbation of VT; type: functional, organism-based; conditions: Canis lupus familiaris; Cardiac ventricle
[28] = tested on: Canis familiaris; test: Tested for Norman sinus rhythm in dogs at a dose of 3 mg/kg; type: functional, Canis lupus familiaris
[29] = organism: Canis familiaris; test: Relative effect on mean blood pressure in dogs; Moderate change in mean BP; type: functional, organism-based; conditions: Canis lupus familiaris
[30] = organism: Canis familiaris; test: Relative effect on mean blood pressure in dogs;NC=no change in mean BP; type: functional, organism-based; conditions: Canis lupus familiaris
[31] = organism: Canis familiaris; test: Relative effect on normal sinus rate in dogs;Slight increase; type: functional, organism-based; conditions: Canis lupus familiaris
[32] = organism: Canis familiaris; test: Relative effect on normal sinus rate in dogs;Slight decrease; type: functional, organism-based; conditions: Canis lupus familiaris
[33] = organism: Canis familiaris; test: Relative effect on abolition of ventricular tachycardia in dogs; type: functional, organism-based; conditions: Canis lupus familiaris; Cardiac ventricle
[34] = tested on: Canis familiaris; test: Tested for mean blood pressure without ventricular tachycardia in dogs at a dose of 6 mg/kg expt-2; type: functional, Canis lupus familiaris
[35] = tested on: Canis familiaris; test: Tested for Norman sinus rhythm in dogs at a dose of 6 mg/kg expt-2; type: functional, Canis lupus familiaris
[36] = tested on: Canis familiaris; test: Tested for mean blood pressure with ventricular tachycardia in dogs at a dose of 3 mg/kg expt-1; type: functional, Canis lupus familiaris
[37] = tested on: Canis familiaris; test: Tested for mean blood pressure without ventricular tachycardia in dogs at a dose of 3 mg/kg expt-2; type: functional, Canis lupus familiaris
[38] = tested on: Canis familiaris; test: Tested for mean blood pressure without ventricular tachycardia in dogs at a dose of 6 mg/kg expt-1; type: functional, Canis lupus familiaris
[39] = organism: Canis familiaris; test: Relative effect on exacerbation of ventricular tachycardia in dogs; Exacerbation of VT present; type: functional, organism-based; conditions: Canis lupus familiaris; Cardiac ventricle
[40] = organism: Canis familiaris; test: Relative effect on slowing of ventricular tachycardia in dogs;slowing of VT present; type: functional, organism-based; conditions: Canis lupus familiaris; Cardiac ventricle
[41] = tested on: Canis familiaris; test: Tested for mean blood pressure with ventricular tachycardia in dogs at a dose of 6 mg/kg expt-1; type: functional, Canis lupus familiaris
[42] = tested on: Canis familiaris; test: Tested for mean blood pressure without ventricular tachycardia in dogs at a dose of 3 mg/kg expt-1; type: functional, Canis lupus familiaris
[43] = tested on: Canis familiaris; test: Tested for mean blood pressure with ventricular tachycardia in dogs at a dose of 3 mg/kg expt-2; type: functional, Canis lupus familiaris
[44] = tested on: Canis familiaris; test: Tested for Norman sinus rhythm in dogs at a dose of 3 mg/kg expt-2; type: functional, Canis lupus familiaris
[45] = tested on: Canis familiaris; test: Tested for Norman sinus rhythm in dogs at a dose of 3 mg/kg expt-1; type: functional, Canis lupus familiaris
[46] = tested on: Canis familiaris; test: Tested for mean blood pressure with ventricular tachycardia in dogs at a dose of 6 mg/kg expt-2; type: functional, Canis lupus familiaris
[47] = tested on: Canis familiaris; test: Tested for Norman sinus rhythm in dogs at a dose of 6 mg/kg expt-1; type: functional, Canis lupus familiaris
[48] = organism: Canis familiaris; test: Relative effect on mean blood pressure in dogs;NC = no change in mean BP; type: functional, organism-based; conditions: Canis lupus familiaris
[49] = organism: Canis familiaris; test: Relative effect on exacerbation of ventricular tachycardia in dogs; no exacerbation of VT; type: functional, organism-based; conditions: Canis lupus familiaris; Cardiac ventricle
[50] = tested on: Canis familiaris; test: Tested for Norman sinus rhythm in dogs at a dose of 3 mg/kg Expt-3; type: functional, Canis lupus familiaris
[51] = organism: Canis familiaris; test: Relative effect on normal sinus rate in dogs;NC=no change; type: functional, organism-based; conditions: Canis lupus familiaris
[52] = tested on: Canis familiaris; test: Tested for mean blood pressure without ventricular tachycardia in dogs at a dose of 3 mg/kg expt-3; type: functional, Canis lupus familiaris
[53] = tested on: Canis familiaris; test: Tested for mean blood pressure without ventricular tachycardia in dogs at a dose of 6 mg/kg expt-3; type: functional, Canis lupus familiaris
[54] = organism: Canis familiaris; test: Relative effect on mean blood pressure in dogs; moderate increase by 16% in mean BP; type: functional, organism-based; conditions: Canis lupus familiaris
[55] = organism: Canis familiaris; test: Relative effect on abolition of ventricular tachycardia in dogs; abolition of VT; type: functional, organism-based; conditions: Canis lupus familiaris; Cardiac ventricle

Row | SMILES | MBP [3] | NSR [4] | MBP [6] | Activity [7] [beats min-1] | MBP [8] | Effect [9] | NSR [10] | MBP [11] | MBP [12] | Effect [13] | NSR [14] | Effect [15] | Activity [16] [beats min-1] | MBP [19] | NSR [20] | Effect [21] | MBP [34] | MBP [37] | MBP [38] | MBP [42] | further results
1 | OC1(O)C2C[Se]CC1CN(Cc1ccccc1)C2 | 60 | 150 | 130 | 300 | 130 | exacerbation of VT | 150 | 40 | 125 | No exacerbation | 155 | exacerbation of VT | 255 | 125 | 155 |  |  |  |  |  | MBP [1]: 70; Effect [2]: inactive; Activity [5]: 320 beats min-1; Activity [17]: 280 beats min-1; Effect [18]: inactive
2 | c1ccc(CN2CC3C[Se]CC(C3)C2)cc1 |  |  |  |  |  |  |  |  |  |  |  |  |  |  |  | No change |  |  |  |  | MBP [22]: 126; NSR [23]: 160; Effect [24]: abolition of ventricular tachycardia; Effect [25]: Slight; MBP [26]: 125; Effect [27]: No exacerbation; NSR [28]: 160
3 | c1ccc([C@H]2N[C@@H](c3ccccc3)C3C[Se]CC2C3)cc1 | 20 | 140 | 82 | 270 | 80 | exacerbation of VT | 150 | 30 | 125 |  | 150 | exacerbation of VT | 280 | 125 | 145 |  |  |  |  |  | Effect [29]: mod; Effect [30]: No change; Effect [31]: Slight; Effect [32]: Slight; Effect [33]: exacerbation of VT
4 | CCN(CC)CC(=O)Nc1c(C)cccc1C [LIDOCAINE] |  |  |  |  |  |  |  |  |  | inactive |  |  |  |  |  | inactive | 72 | 70 | 112 | 110 | NSR [35]: 150; MBP [36]: 40; Effect [39]: Active; Effect [40]: Active; MBP [41]: 40; MBP [43]: 75; NSR [44]: 150; NSR [45]: 165; MBP [46]: 52; NSR [47]: 160; Effect [48]: inactive
5 | c1ccc(CCN2CC3C[Se]CC(C3)C2)cc1 |  |  |  |  |  |  | 168 |  |  |  | 150 |  |  |  |  |  | 150 | 85 | 125 | 128 | Effect [49]: No exacerbation; NSR [50]: 155; Effect [51]: inactive; MBP [52]: 150; NSR ([23]; 6 mg/kg): 165 and 150 and 155; MBP [53]: 85; Effect [54]: mod; Effect [55]: abolition of ventricular tachycardia

— ChEMBL document CHEMBL1123731, “Synthesis and antiarrhythmic properties of novel 3-selena-7-azabicyclo[3.3.1]nonanes and derivatives. Single-crystal X-ray diffraction analysis of 7-benzyl-3-selena-7-azabicyclo[3.3.1]nonan-9-one and 7-benzyl-3-selena-7-azabicyclo[3.3.1]nonane hydroperchlorate” (1987)
